# Assay results as given in patent US20220370486A1, “COMBINATION TREATMENT OF SYSTEMIC FUNGAL INFECTIONS” (The Board of Trustees of the University of Illinois, priority 2019, published 2022).
# Like-named read-outs stand apart in the source and are kept apart here.
# Tests used:
# A. flavus ATCC 204304 = assay: Checkerboard broth microdilution (CLSI); type: cell-based; settings: isolate ATCC 204304
# Method: (§1) Isolates were tested against varying concentrations of amphotericin B and C2′epiAmB (range, 0.06 to 4 mg/L) and combined with fluconazole (range, 0.12 to 128 mg/L) or ketoconazole (range 0.008 to 8 mg/L) or voriconazole (range, 0.004 to 4 mg/L) using a checkerboard grid design following the Clinical and Laboratory Standards Institute (CLSI) broth microdilution method (M23Ed5).
# A. flavus SC 1085986 = assay: Checkerboard broth microdilution (CLSI); type: cell-based; settings: isolate 1085986
# Method: as §1
# A. fumigatus 1077391 = assay: Checkerboard broth microdilution (CLSI); type: cell-based; settings: isolate 1077391
# Method: as §1
# [1] = test system: A. fumigatus ATCC MYA-3626; assay: Checkerboard broth microdilution (CLSI); type: cell-based; settings: isolate ATCC MYA-3626; for MIC: single agent
# Method: as §1
# C. albicans 967374 = assay: Checkerboard broth microdilution (CLSI); type: cell-based; settings: isolate 967374
# Method: as §1
# C. krusei 975691 = assay: Checkerboard broth microdilution (CLSI); type: cell-based; settings: isolate 975691
# Method: as §1
# C. krusei ATCC 6258 = assay: Checkerboard broth microdilution (CLSI); type: cell-based; settings: isolate ATCC 6258
# Method: as §1
# C. parapsilosis 1048737 = assay: Checkerboard broth microdilution (CLSI); type: cell-based; settings: isolate 1048737; for MIC: single agent
# Method: as §1
# [2] = test system: C. parapsilosis ATCC 22019; assay: Checkerboard broth microdilution (CLSI); type: cell-based; settings: isolate ATCC 22019
# Method: as §1
# F. solani SC 1047542 = assay: Checkerboard broth microdilution (CLSI); type: cell-based; settings: isolate 1047542
# Method: as §1
# [3] = UV-Vis and PCA based sterol sponge binding assay; settings: apparent KD, sterol sponge aggregates in vitro
# Source text: However, an alternative method was developed for reproducible formation of homogenous AmB and C2′epiAmB sterol sponge aggregates in vitro. Using these preparations, a quantitative UV-Vis and Principle Component (PCA) based assay for determining the apparent Kis for the binding of AmB and C2′epiAmB to ergosterol and cholesterol (FIGS. 2A-2D) was developed.
# [4] = Isothermal titration calorimetry (ITC) sterol binding
# Source text: (§2) This key discovery opened a path to the rational development of a non-toxic AmB variant. To probe its predicted role in sterol binding, the hydroxyl group was synthetically deleted at the C2′ position on the mycosamine appendage.
# A practical 11-step synthesis of C2′epiAmB using a frontier site-selective acylation method was developed. Wilcock, B. C. et al., Nat Chem 2012, 4 (12), 996-1003; Uno, B. E. A synthesis enabled understanding of Amphotericin B leading to derivatives with improved therapeutic indices. University of Illinois at Urbana-Champaign, 2014. The sterol binding and cell killing activities was then determined.
# human red blood cells = assay: Toxicity to human red blood cells; type: cell-based
# Source text: as §2
# In each case, C2′epiAmB is non-toxic to human red blood cells, primary hREC, mice, and rats up to the highest dose tested.
# A. fumigatus A1163 = assay: In vitro antifungal activity (Evotec); type: cell-based; settings: strain A1163
# Source text: (§3) In vitro antifungal activity of C2′ epiAmB was compared with that of AmB against an extensive series of Candida and Aspergillus clinical isolates (FIG. 6A) at Evotec (Oxfordshire, UK). […] C2′epiAmB was also sent to the US national Fungus Testing Laboratory at UT-San Antonio for antifungal testing against an extended panel of especially challenging 40 Aspergillus clinical isolates, including azole-resistant A. fumigatus, A. flavus, and A. terreus (FIG. 6B).
# A. fumigatus AF293 = assay: In vitro antifungal activity (Evotec); type: cell-based; settings: strain AF293
# Source text: as §3
# A. fumigatus AF91 = assay: In vitro antifungal activity (Evotec); type: cell-based; settings: strain AF91
# Source text: as §3
# A. fumigatus ATC204305 = assay: In vitro antifungal activity (Evotec); type: cell-based; settings: strain ATC204305
# Source text: as §3
# [5] = test system: Candida and Aspergillus clinical isolates; assay: In vitro antifungal activity against clinical isolates (Evotec); type: cell-based; settings: many Candida and several Aspergillus strains
# Source text: as §3
# [6] = test system: clinically relevant invasive molds; assay: Activity against broader panel of invasive molds; type: cell-based; settings: many strains, including pan-azole resistant strain F14196
# Source text: as §3
# Candida albicans SN250 = assay: MIC against Candida albicans SN250; type: cell-based
# [7] = rat, in vivo
# [8] = Intravenous toxicity in mice; settings: up to the highest dose tested
# [9] = Intravenous toxicity in rats; settings: IV, 2, 10, and 17.5 mg/kg
smiles,measurement,setting,value
"C[C@@H]1[C@H](O)[C@@H](C)/C=C/C=C/C=C/C=C/C=C/C=C/C=C/[C@H](OC2O[C@H](C)[C@@H](O)[C@H](N)[C@H]2O)CC2O[C@](O)(C[C@@H](O)C[C@@H](O)[C@H](O)CC[C@@H](O)C[C@@H](O)CC(=O)O[C@H]1C)C[C@H](O)[C@H]2C(=O)O (stereo partly drawn) [C2′epiAmB, C2′epi amphotericin B]",MIC,"A. flavus ATCC 204304; Aspergillus flavus, ATCC204304, single agent",2 µg/mL
same,MIC when added 1 log2 unit lower of azoles' MIC,A. flavus ATCC 204304; with ketoconazole,2 mg/L
same,MIC when added 1 log2 unit lower of azoles' MIC,A. flavus ATCC 204304; with voriconazole,1 mg/L
same,MIC,"A. flavus SC 1085986; Aspergillus flavus, single agent",4 µg/mL
same,MIC when added 1 log2 unit lower of azoles' MIC,A. flavus SC 1085986; with ketoconazole,>4 mg/L
same,MIC when added 1 log2 unit lower of azoles' MIC,A. flavus SC 1085986; with voriconazole,>4 mg/L
same,MIC,"A. fumigatus 1077391; Aspergillus fumigatus, single agent",4 µg/mL
same,MIC when added 1 log2 unit lower of azoles' MIC,A. fumigatus 1077391; with ketoconazole,0.06 mg/L
same,MIC when added 1 log2 unit lower of azoles' MIC,A. fumigatus 1077391; with voriconazole,>4 mg/L
same,MIC,"[1]; Aspergillus fumigatus, read-out: MIC",> 4 µg/mL
same,MIC,[1],4 µg/mL
same,MIC when added 1 log2 unit lower of azoles' MIC,[1]; with ketoconazole,0.06 mg/L
same,MIC when added 1 log2 unit lower of azoles' MIC,[1]; with voriconazole,>4 mg/L
same,MIC,"C. albicans 967374; Candida albicans, single agent, read-out: MIC",2 µg/mL
same,MIC when added 1 log2 unit lower of azoles' MIC,C. albicans 967374; with fluconazole,2 mg/L
same,MIC when added 1 log2 unit lower of azoles' MIC,C. albicans 967374; with ketoconazole,1 mg/L
same,MIC when added 1 log2 unit lower of azoles' MIC,C. albicans 967374; with voriconazole,1 mg/L
same,MIC,"C. krusei 975691; Pichia kudriavzevii, single agent, read-out: MIC",2 µg/mL
same,MIC when added 1 log2 unit lower of azoles' MIC,C. krusei 975691; with fluconazole,2 mg/L
same,MIC when added 1 log2 unit lower of azoles' MIC,C. krusei 975691; with ketoconazole,2 mg/L
same,MIC when added 1 log2 unit lower of azoles' MIC,C. krusei 975691; with voriconazole,2 mg/L
same,MIC,"C. krusei ATCC 6258; Pichia kudriavzevii, ATCC6258, single agent, read-out: MIC",2 µg/mL
same,MIC,C. krusei ATCC 6258; single agent,1 µg/mL
same,MIC when added 1 log2 unit lower of azoles' MIC,C. krusei ATCC 6258; with fluconazole,2 mg/L
same,MIC when added 1 log2 unit lower of azoles' MIC,C. krusei ATCC 6258; with ketoconazole,1 mg/L
same,MIC when added 1 log2 unit lower of azoles' MIC,C. krusei ATCC 6258; with voriconazole,1 mg/L
same,MIC,"C. parapsilosis 1048737; Lodderomyces parapsilosis, read-out: MIC",1 µg/mL
same,MIC,C. parapsilosis 1048737,2 µg/mL
same,MIC when added 1 log2 unit lower of azoles' MIC,C. parapsilosis 1048737; with fluconazole,1 mg/L
same,MIC when added 1 log2 unit lower of azoles' MIC,C. parapsilosis 1048737; with ketoconazole,0.5 mg/L
same,MIC when added 1 log2 unit lower of azoles' MIC,C. parapsilosis 1048737; with voriconazole,0.5 mg/L
same,MIC,"[2]; Lodderomyces parapsilosis, ATCC22019, single agent, read-out: MIC",1 µg/mL
same,MIC,[2]; single agent,2 µg/mL
same,MIC when added 1 log2 unit lower of azoles' MIC,[2]; with fluconazole,1 mg/L
same,MIC when added 1 log2 unit lower of azoles' MIC,[2]; with ketoconazole,0.5 mg/L
same,MIC when added 1 log2 unit lower of azoles' MIC,[2]; with voriconazole,1 mg/L
same,MIC,"F. solani SC 1047542; Fusarium solani, single agent",> 4 µg/mL
same,MIC when added 1 log2 unit lower of azoles' MIC,F. solani SC 1047542; with ketoconazole,0.06 mg/L
same,MIC when added 1 log2 unit lower of azoles' MIC,F. solani SC 1047542; with voriconazole,>4 mg/L
same,Kd,"[3]; read-out: KD,chol",> 2000 nM
same,Kd,"[3]; read-out: KD,erg",150 nM
same,binding of ergosterol by ITC,[4],bind ergosterol
same,binding of cholesterol by ITC,[4]; within the detection limits of ITC,not (detectably) cholesterol
same,toxicity to human red blood cells,human red blood cells,non-toxic
same,less potent than AmB,A. fumigatus A1163,4 fold
same,less potent than AmB,A. fumigatus AF293,4 fold
same,less potent than AmB,A. fumigatus AF91,> 32 times
same,less potent than AmB,A. fumigatus ATC204305,4 fold
same,in vitro antifungal activity,[5],good activity
same,antifungal potency,[6],good antifungal potency
same,MIC,Candida albicans SN250,0.5 µM
same,toxicity in rats,[7],non-toxic
same,toxicity in mice,[8],non-toxic
same,mortality,[9],no mortality
